In the assay the test system is 596521-263-R-J1-PDC complex spheroids, viability % of control. Kind of assay: Anticancer human tumor 596521-263-R-J1-PDC patient-derived soft tissue sarcoma cell line growth inhibition [GQUAD]. Conditions: for viability, T/C: stronger effect = lower value. An excerpt: DNA G-quadruplex Stabilizer Agents in Combinations in Complex Spheroids
A high-throughput screen of multi-cell type tumor spheroids was designed to identify active combinations of DNA G-quadruplex stabilizer agents and targeted small molecules. Complex spheroids include a stromal component modeled by human endothelial cells (HUVEC) and fibroblasts modeled by human mesenchymal stem cells (MSCs). The concentration ranges selected for each drug and investigational agent were based upon clinically achievable concentrations if the clinical Cmax of the agent was known.
Compounds. The drugs and investigational agents: pidnarulex (CX-5461; NSC782164), APTO-253 (NSC789042), BRACO-19 (NSC847499), peposertib (NSC802822), ceralasertib (NSC780249), elimusertib (NSC800525), camonsertib (NSC841442), AZD-1390 (NSC803789), olaparib (NSC753686), talazoparib (NSC767125), ART-558 (NSC835418), sotorasib (NSC818433), MRTX-1133 (NSC836407), SN-38 (NSC673596), topotecan (NSC609699), etoposide (NSC141540), doxorubicin (NSC123127), gemcitabine (NSC613327), 5-fluorouracil (NSC19893), paclitaxel (NSC125973), vemurafenib (NSC761431), panobinostat (NSC761190), R-306465 (JNJ-16241199; NSC773264), adavosertib (NSC754352), TP-3654 (NSC805149), carboplatin (NSC241240), KSQ-4279 (NSC840948), and staurosporine (NSC755774) were obtained from the National Cancer Institute (NCI) Developmental Therapeutics Program Chemical Repository (34). The FDA-approved anticancer drug set is available from the NCI Developmental Therapeutics Program. […] The stock solutions were prepared in dimethyl sulfoxide (DMSO, Sigma-Aldrich, St. Louis, MO, cat. D2650) at 800-fold the tested concentration and stored at -70 degrees C prior to their use. All drugs and investigational agents were tested over a range starting from a high concentration at or near the clinical Cmax and decreasing in half-log increments. If the clinical Cmax for an agent had not been determined, the highest concentration tested was 10 microM.
2.3 Cell Culture. All cells were maintained in an incubator at 37 degrees C and 5% CO2 with 95% humidity. The PDC lines were cultured according to standard operating procedures established by the NCI PDMR. All PDCs were thawed and cultured in Matrigel-coated flasks prepared with a working solution of 1X Ham's F-12 nutrient mix, without supplementation (Invitrogen, cat. 11765054), 100 U/mL penicillin-streptomycin (Invitrogen, cat. 15140122), and 2.5% Matrigel (Corning Inc., cat. 354248) for the first three passages. The 857933-349-R-J2-PDC line was cultured in 6C/Colon 1B media, which includes advanced DMEM/F-12 (Thermo Fisher Scientific, cat. 12634028), 10 mM HEPES (Thermo Fisher Scientific, cat. 15630080), 1X GlutaMAX supplement (Thermo Fisher Scientific, cat. 35050061), 0.1 mg/mL primocin (InvivoGen, cat. ant-pm-2), 10% defined fetal bovine serum, heat inactivated (HyClone Laboratories Inc., cat. SH30070.03HI), 50% L-WRN conditioned media (ATCC, cat. CRL-3276), 1.25 mM N-Acetyl-L-cysteine (Sigma-Aldrich, cat. A9165), 10 mM nicotinamide (Sigma-Aldrich, cat. N0636), 1X B-27 supplement (Thermo Fisher Scientific, cat. 17504044), 1X N-2 supplement (Thermo Fisher Scientific, cat. 17502048), 10 microM Y-27632 dihydrochloride (Tocris Bioscience, cat. 1254), and 50 ng/mL human EGF recombinant protein (Thermo Fisher Scientific, cat. PHG0311). The 485176-168-R4-J1-PDC line was cultured in Panc media, which includes all 6C/Colon 1B media components plus 100 ng/mL human FGF-10 (Thermo Fisher Scientific, cat. 100-26), 500 nM SB-431542 (Selleckchem, cat. S1067), and gastrin (Tocris, cat. 3006).
[…]

Where “and” joins values, the source holds several entries; their conditions need not be identical. Identical values can stand only once.
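Further: spheroids exposed to drugs for 7 days before viability reading.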

In general, viability, T/C refers to the ratio of treated to control. As usually defined, the IC50 is the concentration that gives 50% inhibition. As for `CC1COCCN1c1cc(C2(O)CC3CCC(C2)O3)c2cnn(-c3ccn[nH]3)c2n1` (stereo not given), the viability, T/C is 68.2% and 80.2% and 69% (compound 0.0316 µM); 66.9% and 48.7% and 53.4% (compound 0.1 µM); 39.5% and 49.8% and 44.3% (compound 0.316 µM); 32.1% and 33.8% and 33.2% (compound 1 µM); 21.9% and 25.7% and 22.9% (compound 3.16 µM); 12.9% and 16.6% and 12.2% (compound 10 µM). In addition, under “curve of compound”, the concentration for half-maximal inhibition (IC50) was 226 nM and 195 nM and 173 nM.

With `O=C(NO)c1cnc(N2CCN(S(=O)(=O)c3ccc4ccccc4c3)CC2)nc1`, the viability, T/C reads like this: (compound 0.0316 µM) 39.6% and 75% and 74.9%; (compound 0.1 µM) 25.7% and 56.3% and 57.3%; (compound 0.316 µM) 26.8% and 8.85% and 14%. In addition, where the note is “curve of compound”, the half-maximal inhibitory concentration (IC50) is < 31.6 nM and 117 nM and 121 nM.

Consider `CCCS(=O)(=O)Nc1ccc(F)c(C(=O)c2c[nH]c3ncc(-c4ccc(Cl)cc4)cc23)c1F`, for which the viability, T/C is 105% and 100% and 95.2% (compound 0.0316 µM); 81.5% and 87% and 92.4% (compound 0.1 µM); 51.8% and 93% and 109% (compound 0.316 µM); 43% and 88.8% and 110% (compound 1 µM); 40% and 64.2% and 82.7% (compound 3.16 µM); 34.2% and 30.7% and 36.3% (compound 10 µM).

Consider `CC(C)(O)C1CCC(Nc2ccc3ncc(-c4cccc(C(F)(F)F)c4)n3n2)CC1` (stereo not given) + CN(C)c1ccc(Nc2c3ccc(NC(=O)CCN4CCCC4)cc3nc3cc(NC(=O)CCN4CCCC4)ccc23)cc1, for which the half-maximal inhibitory concentration (IC50) is, setting by setting: (curve of first compound, second compound 0.0316 µM) 1420 nM; (curve of first compound, second compound 0.1 µM) 1370 nM; (curve of first compound, second compound 0.316 µM) 1560 nM; (curve of first compound, second compound 1 µM) 1720 nM; (curve of first compound, second compound 3.16 µM) 1520 nM; (curve of first compound, second compound 10 µM) 915 nM. For the same compound, the viability, T/C is, setting by setting: (second compound 0.0316 µM, first compound 0.0316 µM) 96.8%; (second compound 0.0316 µM, first compound 0.1 µM) 97.3%; (second compound 0.0316 µM, first compound 0.316 µM) 81.7%; (second compound 0.0316 µM, first compound 1 µM) 65%; (second compound 0.0316 µM, first compound 3.16 µM) 16.9%; (second compound 0.0316 µM, first compound 10 µM) 19.1%. Also, the viability, T/C (second compound 0.1 µM, first compound 0.0316 µM) is 94.2%; the viability, T/C (second compound 0.1 µM, first compound 0.1 µM) is 84.5%; the viability, T/C (second compound 0.1 µM, first compound 0.316 µM) was 87%; the viability, T/C (second compound 0.1 µM, first compound 1 µM) is 61%; the viability, T/C (second compound 0.1 µM, first compound 3.16 µM) was 20.4%; the viability, T/C (second compound 0.1 µM, first compound 10 µM) is 21.6%. For the same compound, the viability, T/C runs as follows: (second compound 0.316 µM, first compound 0.0316 µM) 97%; (second compound 0.316 µM, first compound 0.1 µM) 113%; (second compound 0.316 µM, first compound 0.316 µM) 83.4%; (second compound 0.316 µM, first compound 1 µM) 70.5%; (second compound 0.316 µM, first compound 3.16 µM) 19.9%; (second compound 0.316 µM, first compound 10 µM) 20.2%. The viability, T/C runs as follows: (second compound 1 µM, first compound 0.0316 µM) 92.9%; (second compound 1 µM, first compound 0.1 µM) 95.9%; (second compound 1 µM, first compound 0.316 µM) 78.6%; (second compound 1 µM, first compound 1 µM) 75.5%; (second compound 1 µM, first compound 3.16 µM) 19.1%; (second compound 1 µM, first compound 10 µM) 24%. In addition, the viability, T/C is 87.1% (second compound 3.16 µM, first compound 0.0316 µM); 97.3% (second compound 3.16 µM, first compound 0.1 µM); 83.8% (second compound 3.16 µM, first compound 0.316 µM); 66.4% (second compound 3.16 µM, first compound 1 µM); 18.1% (second compound 3.16 µM, first compound 3.16 µM); 24.2% (second compound 3.16 µM, first compound 10 µM). Moreover, the viability, T/C runs as follows: (second compound 10 µM, first compound 0.0316 µM) 65.3%; (second compound 10 µM, first compound 0.1 µM) 61.7%; (second compound 10 µM, first compound 0.316 µM) 61.1%; (second compound 10 µM, first compound 1 µM) 49%; (second compound 10 µM, first compound 3.16 µM) 13.8%; (second compound 10 µM, first compound 10 µM) 13.1%.

Consider `C=CCn1c(=O)c2cnc(Nc3ccc(N4CCN(C)CC4)cc3)nc2n1-c1cccc(C(C)(C)O)n1`, for which the viability, T/C is, setting by setting: (compound 0.0316 µM) 99.8% and 97.8% and 103%; (compound 0.1 µM) 92% and 80.4% and 93.1%; (compound 0.316 µM) 96.9% and 51.6% and 61.3%; (compound 1 µM) 92.4% and 41% and 41.4%; (compound 3.16 µM) 67.7% and 34.9% and 37%; (compound 10 µM) 33.8% and 38.8% and 32.9%.
